For orientation: IC50 means the concentration needed to halve the response being measured.

The target of the experiment is recombinant Human Phosphodiesterase B2 (PDE4B2) (Homo sapiens, UniProt Q07343). The experiment in a line: Human Phosphodiesterase B2 Alpha Screen Assay. The format is biochemical. Conditions: cAMP substrate, Alpha Screen cAMP kit, 60 minutes at room temperature. On the procedure: Human Phosphodiesterase B2 Alpha Screen Assay
Sequence of recombinant Human Phosphodiesterase B2 (PDE4B2) (Q07343 1-564 isoform Q07343-2): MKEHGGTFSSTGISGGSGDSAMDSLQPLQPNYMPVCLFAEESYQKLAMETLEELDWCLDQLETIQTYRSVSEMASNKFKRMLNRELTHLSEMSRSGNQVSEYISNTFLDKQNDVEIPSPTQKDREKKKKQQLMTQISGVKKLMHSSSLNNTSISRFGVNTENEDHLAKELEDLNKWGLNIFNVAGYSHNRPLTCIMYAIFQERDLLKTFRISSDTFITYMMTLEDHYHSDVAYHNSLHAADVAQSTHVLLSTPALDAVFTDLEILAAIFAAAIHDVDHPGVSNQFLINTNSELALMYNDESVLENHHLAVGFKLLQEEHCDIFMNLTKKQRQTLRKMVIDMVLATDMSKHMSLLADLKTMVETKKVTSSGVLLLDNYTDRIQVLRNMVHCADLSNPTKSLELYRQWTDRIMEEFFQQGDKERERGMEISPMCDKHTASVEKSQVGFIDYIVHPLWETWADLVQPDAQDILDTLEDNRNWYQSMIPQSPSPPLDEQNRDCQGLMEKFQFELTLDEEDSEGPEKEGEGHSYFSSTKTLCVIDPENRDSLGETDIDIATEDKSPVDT
The assay uses recombinant Human Phosphodiesterase B2 (PDE4B2) produced in house (PrAZL0133), stored at −20° C. The substrate uses cAMP, part of the Alpha Screen cAMP kit (Perkin Elmer, Cat# 6760625M), stored at 4° C. The Alpha Screen kit also includes biotinylated cAMP, acceptor and donor beads.
The assay additions were as follows: Test compounds and controls were added to white 384-well flat-bottom plates (Greiner, Cat# 781075), 0.2 μl in 100% DMSO, followed by 10 μl PDE4B2 in reaction buffer. The reaction buffer constitution was: 50 mM Tris (pH 7.5), 8.3 mM MgCl2, 1.7 mM EGTA and 0.01% (w/v) Brij®35. The enzyme and the compounds were incubated at room temperature for 15 minutes. Then 10 μl cAMP in reaction buffer was added. The assay was stopped after 60 minutes incubation at room temperature by adding 10 μl acceptor beads in detection buffer with 40 mM EDTA. The detection buffer constitution was: 5 mM Tris (pH 7.5), 0.1% (w/v) BSA and 0.1% (v/v) Tween 20. This addition followed by an addition of 10 μl donor beads in detection buffer, with biotinylated cAMP. The plates were then incubated, dark at room temperature, for 5 hours followed by measurement on a Fusion™-α analyser. IC50 values (presented in Table 1) were determined using Xlfit curve fitting using model 205.
In the case of `CS(=O)(=O)N[C@H]1CC[C@@H](n2c(=O)c3cc(F)cnc3n(-c3ccc(F)c(F)c3)c2=O)CC1` [Example 47, N-{cis-4-[1-(3,4-Difluorophenyl)-6-fluoro-2,4-dioxo-1,4-dihydropyrido[2,3-d]pyrimidin-3(2H)-yl]cyclohexyl}methanesulfonamide], the 50% inhibitory concentration (IC50) turned out to be 60.1 nM.

Consider `O=C(N[C@H]1CC[C@@H](n2c(=O)c3cc(F)cnc3n(-c3ccc(F)c(F)c3)c2=O)CC1)C1CC1` [Example 48, N-{cis-4-[1-(3,4-Difluorophenyl)-6-fluoro-2,4-dioxo-1,4-dihydropyrido[2,3-d]pyrimidin-3(2H)-yl]cyclohexyl}cyclopropanecarboxamide], for which the IC50 stood at 8.8 nM.

As to `COC(=O)c1cccc(-n2c(=O)n([C@H]3CC[C@@H](NC(=O)[C@@H]4CCCN4C)CC3)c(=O)c3cc(F)cnc32)c1` [Example 49, Methyl 3-[6-fluoro-3-{cis-4-[(1-methyl-L-prolyl)amino]cyclohexyl}-2,4-dioxo-3,4-dihydropyrido[2,3-d]pyrimidin-1(2H)-yl]benzoate], the IC50 was 14.5 nM.

Take `COC(=O)c1ccc(C(=O)N[C@H]2CC[C@@H](n3c(=O)c4cc(F)cnc4n(-c4ccc(F)c(F)c4)c3=O)CC2)cn1` [Example 50, methyl 5-[({cis-4-[1-(3,4-difluorophenyl)-6-fluoro-2,4-dioxo-1,4-dihydropyrido[2,3-d]pyrimidin-3(2H)-yl]cyclohexyl}amino)carbonyl]pyridine-2-carboxylate]: the IC50 was found to be 2.1 nM.

Take `O=C(N[C@H]1CC[C@@H](n2c(=O)c3cc(F)cnc3n(-c3ccc(F)c(F)c3)c2=O)CC1)c1ccc(F)cc1O` [Example 51, N-{cis-4-[1-(3,4-difluorophenyl)-6-fluoro-2,4-dioxo-1,4-dihydropyrido[2,3-d]pyrimidin-3(2H)-yl]cyclohexyl}-4-fluoro-2-hydroxybenzamide]: the IC50 was determined as 5.2 nM.

As to `O=C(N[C@H]1CC[C@@H](n2c(=O)c3cc(F)cnc3n(-c3ccc(F)c(F)c3)c2=O)CC1)C1(O)CC1` [Example 52, N-{cis-4-[1-(3,4-difluorophenyl)-6-fluoro-2,4-dioxo-1,4-dihydropyrido[2,3-d]pyrimidin-3(2H)-yl]cyclohexyl}-1-hydroxycyclopropanecarboxamide], the concentration for half-maximal inhibition (IC50) is 18.6 nM.

For the molecule `O=C(N[C@H]1CC[C@@H](n2c(=O)c3cc(F)cnc3n(-c3ccc(F)c(F)c3)c2=O)CC1)c1cccc2cccnc12` [Example 53, N-{cis-4-[1-(3,4-difluorophenyl)-6-fluoro-2,4-dioxo-1,4-dihydropyrido[2,3-d]pyrimidin-3(2H)-yl]cyclohexyl}quinoline-8-carboxamide], the IC50 turned out to be 0.4 nM.

In the case of `CSc1cccc(-n2c(=O)n([C@H]3CC[C@@H](NC(=O)c4ccco4)CC3)c(=O)c3cc(F)cnc32)c1` [Example 54, N-{cis-4-[6-fluoro-1-[3-(methylthio)phenyl]-2,4-dioxo-1,4-dihydropyrido[2,3-d]pyrimidin-3(2H)-yl]cyclohexyl}-2-furamide], the IC50 amounted to 3.9 nM.

`CSc1cccc(-n2c(=O)n([C@H]3CC[C@@H](NC(=O)C4CC4)CC3)c(=O)c3cc(F)cnc32)c1` [Example 55, N-{cis-4-[6-fluoro-1-[3-(methylthio)phenyl]-2,4-dioxo-1,4-dihydropyrido[2,3-d]pyrimidin-3(2H)-yl]cyclohexyl}cyclopropanecarboxamide]: the IC50 was found to be 2.6 nM.

Regarding `CCC(=O)N[C@H]1CC[C@@H](n2c(=O)c3cc(F)cnc3n(-c3cccc(SC)c3)c2=O)CC1` [Example 56, N-{cis-4-[6-fluoro-1-[3-(methylthio)phenyl]-2,4-dioxo-1,4-dihydropyrido[2,3-d]pyrimidin-3(2H)-yl]cyclohexyl}propanamide], the concentration for half-maximal inhibition (IC50) was 7.2 nM.

With `CSc1cccc(-n2c(=O)n([C@H]3CC[C@@H](NC(=O)c4ccccc4)CC3)c(=O)c3cc(F)cnc32)c1` [Example 57, N-{cis-4-[6-fluoro-1-[3-(methylthio)phenyl]-2,4-dioxo-1,4-dihydropyrido[2,3-d]pyrimidin-3(2H)-yl]cyclohexyl}benzamide], the IC50 came to 4.2 nM.

Consider `CSc1cccc(-n2c(=O)n([C@H]3CC[C@@H](NC(=O)C4CCCC4)CC3)c(=O)c3cc(F)cnc32)c1` [Example 58, N-{cis-4-[6-fluoro-1-[3-(methylthio)phenyl]-2,4-dioxo-1,4-dihydropyrido[2,3-d]pyrimidin-3(2H)-yl]cyclohexyl}cyclopentanecarboxamide], for which the IC50 is 3.9 nM.

As to `CSc1cccc(-n2c(=O)n([C@H]3CC[C@@H](NC(=O)C(C)(C)O)CC3)c(=O)c3cc(F)cnc32)c1` [Example 59, N-{cis-4-[6-fluoro-1-[3-(methylthio)phenyl]-2,4-dioxo-1,4-dihydropyrido[2,3-d]pyrimidin-3(2H)-yl]cyclohexyl}-2-hydroxy-2-methylpropanamide], the IC50 turned out to be 14.9 nM.

Take `CSc1cccc(-n2c(=O)n([C@H]3CC[C@@H](NS(=O)(=O)c4ccccc4)CC3)c(=O)c3cc(F)cnc32)c1` [Example 60, N-{cis-4-[6-fluoro-1-[3-(methylthio)phenyl]-2,4-dioxo-1,4-dihydropyrido[2,3-d]pyrimidin-3(2H)-yl]cyclohexyl}benzenesulfonamide]: the IC50 turned out to be 32.4 nM.

On to `COC(=O)c1cccc(-n2c(=O)n([C@H]3CC[C@@H](NC(=O)C4CCC4)CC3)c(=O)c3cc(F)cnc32)c1` [Example 61, methyl 3-[3-{cis-4-[(cyclobutylcarbonyl)amino]cyclohexyl}-6-fluoro-2,4-dioxo-3,4-dihydropyrido[2,3-d]pyrimidin-1(2H)-yl]benzoate], for which the IC50 was found to be 5.2 nM.

With `COC(=O)c1cccc(-n2c(=O)n([C@H]3CC[C@@H](NC(=O)C(C)C)CC3)c(=O)c3cc(F)cnc32)c1` [Example 62, methyl 3-[6-fluoro-3-[cis-4-(isobutyrylamino)cyclohexyl]-2,4-dioxo-3,4-dihydropyrido[2,3-d]pyrimidin-1(2H)-yl]benzoate], the IC50 stood at 6.3 nM.

On to `COC(=O)c1cccc(-n2c(=O)n([C@H]3CC[C@@H](NC(=O)CC(C)C)CC3)c(=O)c3cc(F)cnc32)c1` [Example 63, methyl 3-[6-fluoro-3-{cis-4-[(3-methylbutanoyl)amino]cyclohexyl}-2,4-dioxo-3,4-dihydropyrido[2,3-d]pyrimidin-1(2H)-yl]benzoate], for which the IC50 came to 5.7 nM.

Take `COC(=O)c1cccc(-n2c(=O)n([C@H]3CC[C@@H](NC(=O)C(C)(C)C)CC3)c(=O)c3cc(F)cnc32)c1` [Example 64, methyl 3-[3-{cis-4-[(2,2-dimethylpropanoyl)amino]cyclohexyl}-6-fluoro-2,4-dioxo-3,4-dihydropyrido[2,3-d]pyrimidin-1(2H)-yl]benzoate]: the IC50 turned out to be 4.4 nM.

In the case of `COCC(=O)N[C@H]1CC[C@@H](n2c(=O)c3cc(F)cnc3n(-c3cccc(C(=O)OC)c3)c2=O)CC1` [Example 65, methyl 3-[6-fluoro-3-{cis-4-[(methoxyacetyl)amino]cyclohexyl}-2,4-dioxo-3,4-dihydropyrido[2,3-d]pyrimidin-1(2H)-yl]benzoate], the IC50 came to 11.1 nM.

In the case of `COC(=O)c1cccc(-n2c(=O)n([C@H]3CC[C@@H](NC(=O)c4cccs4)CC3)c(=O)c3cc(F)cnc32)c1` [Example 66, methyl 3-[6-fluoro-2,4-dioxo-3-{cis-4-[(2-thienylcarbonyl)amino]cyclohexyl}-3,4-dihydropyrido[2,3-d]pyrimidin-1(2H)-yl]benzoate], the half-maximal inhibitory concentration (IC50) was found to be 4.8 nM.

In the case of `COC(=O)c1cccc(-n2c(=O)n([C@H]3CC[C@@H](NC(C)=O)CC3)c(=O)c3cc(F)cnc32)c1` [Example 67, methyl 3-[3-[cis-4-(acetylamino)cyclohexyl]-6-fluoro-2,4-dioxo-3,4-dihydropyrido[2,3-d]pyrimidin-1(2H)-yl]benzoate], the IC50 was 21.2 nM.

On to `COC(=O)c1cccc(-n2c(=O)n([C@H]3CC[C@@H](NC(=O)c4cc5ccccn5n4)CC3)c(=O)c3cc(F)cnc32)c1` [Example 68, methyl 3-[6-fluoro-2,4-dioxo-3-{cis-4-[(pyrazolo[1,5-a]pyridin-2-ylcarbonyl)amino]cyclohexyl}-3,4-dihydropyrido[2,3-d]pyrimidin-1(2H)-yl]benzoate], for which the IC50 is 0.6 nM.

Consider `COC(=O)c1cccc(-n2c(=O)n([C@H]3CC[C@@H](NC(=O)c4cn5ccccc5n4)CC3)c(=O)c3cc(F)cnc32)c1` [Example 69, methyl 3-[6-fluoro-3-{cis-4-[(imidazo[1,2-a]pyridin-2-ylcarbonyl)amino]cyclohexyl}-2,4-dioxo-3,4-dihydropyrido[2,3-d]pyrimidin-1(2H)-yl]benzoate], for which the half-inhibitory concentration (IC50) was determined as 1 nM.

`COC(=O)c1cccc(-n2c(=O)n([C@H]3CC[C@@H](NC(=O)C4CC4)CC3)c(=O)c3cc(F)cnc32)c1` [Example 70, methyl 3-[3-{cis-4-[(cyclopropylcarbonyl)amino]cyclohexyl}-6-fluoro-2,4-dioxo-3,4-dihydropyrido[2,3-d]pyrimidin-1(2H)-yl]benzoate]: the concentration for half-maximal inhibition (IC50) was determined as 6.6 nM.

With `CS(=O)(=O)c1cccc(-n2c(=O)n([C@H]3CC[C@@H](NC(=O)C4CC4)CC3)c(=O)c3cc(F)cnc32)c1` [Example 71, N-{cis-4-[6-fluoro-1-[3-(methylsulfonyl)phenyl]-2,4-dioxo-1,4-dihydropyrido[2,3-d]pyrimidin-3(2H)-yl]cyclohexyl}cyclopropanecarboxamide], the concentration for half-maximal inhibition (IC50) turned out to be 41.2 nM.
